According to US20230293460A1, “METHOD FOR TREATING DERMATITIS” (CHANG GUNG MEMORIAL HOSPITAL, LINKOU, priority 2020, published 2023):

Tested on: dermatitis in the hands
Assay: Example 4: middle-aged patient with dermatitis in the hands
Assay type: in vivo, human
Details: given together: clobetasol ointment (0.025%) twice a day 21 days, desloratadine 5 mg once a day + hydroxyzine 25 mg twice a day 21 days, cyclosporine 100 mg twice a day 28 days; one patient

Clc1ccc2c(c1)CCc1cccnc1C2=C1CCNCC1 [desloratadine]
scaling and chronic inflammation: did not improve

OCCOCCN1CCN(C(c2ccccc2)c2ccc(Cl)cc2)CC1 (centres unmarked) [hydroxyzine]
scaling and chronic inflammation: did not improve
